The source of these data is patent US11608331B2 (priority 2021, dated 2023).

Like-named read-outs stand apart in the source and are kept apart here.

One data set addresses SARS-CoV-2 Mpro (Severe acute respiratory syndrome coronavirus 2, UniProt P0DTD1). In words: Main protease (Mpro) assay, 3CL Protease assay kit. In kind it is biochemical.
A further data set has as its target SARS-CoV-2 PLpro (Severe acute respiratory syndrome coronavirus 2, UniProt P0DTD1). Nature of the data set: Papain-like protease (PLpro) assay. The format is biochemical. The settings on record: for IC50: dose response curve, read-out: IC50 against SARS-CoV-2 PLpro.
A further data set concerns the target T1, human furin protease (Homo sapiens, UniProt P09958).
T1 construct: purchased BPS Bioscience 78040
In words: Furin protease assay. The format is biochemical.

In data set [1] the test system is SARS-CoV-2 strain NRC-03-nhCoV. In words: microbe, parasite or virus in culture. The format is cell-based.
The next data set is described as follows: in vitro. The settings on record: human.
Setting [2] is: read-out: IC50 against human furin protease.

T1 sequence (P09958 108-794): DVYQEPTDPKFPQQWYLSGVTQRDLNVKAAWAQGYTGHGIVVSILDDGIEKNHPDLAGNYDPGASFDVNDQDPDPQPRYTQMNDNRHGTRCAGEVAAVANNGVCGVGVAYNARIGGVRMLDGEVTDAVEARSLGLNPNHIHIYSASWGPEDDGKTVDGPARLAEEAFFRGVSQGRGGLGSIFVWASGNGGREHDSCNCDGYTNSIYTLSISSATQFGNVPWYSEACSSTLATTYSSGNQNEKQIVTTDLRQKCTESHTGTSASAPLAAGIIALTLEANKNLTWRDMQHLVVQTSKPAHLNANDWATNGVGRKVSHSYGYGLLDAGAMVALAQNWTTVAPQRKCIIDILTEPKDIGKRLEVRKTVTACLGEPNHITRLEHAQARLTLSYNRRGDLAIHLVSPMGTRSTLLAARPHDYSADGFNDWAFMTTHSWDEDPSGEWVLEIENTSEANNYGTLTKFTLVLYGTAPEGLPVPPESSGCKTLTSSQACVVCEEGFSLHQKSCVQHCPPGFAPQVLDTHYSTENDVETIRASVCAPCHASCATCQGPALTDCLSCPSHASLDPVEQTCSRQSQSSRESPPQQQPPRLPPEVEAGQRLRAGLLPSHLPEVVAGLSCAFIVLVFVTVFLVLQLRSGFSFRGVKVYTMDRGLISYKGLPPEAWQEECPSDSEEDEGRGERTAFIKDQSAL

The inhibition is the drop in the measured response relative to a control, in per cent. Broadly, the IC50 is the concentration that gives 50% inhibition. For `COc1cc(C(NC2=NC(=O)C(CC(=O)Nc3ccc(C(=O)O)cc3)S2)c2c(O)[nH]c(=O)[nH]c2=O)ccc1O` (stereo not shown) [Compound 7], the inhibition at 100 µg/mL at SARS-CoV-2 Mpro (read-out: inhibition activity against Mpro enzyme (inhibition percentage)) was 31 ± 2%. Further, the IC50 at SARS-CoV-2 PLpro stood at 85 nM; at human furin protease (setting [2]), 290 nM; in data set [1] (Severe acute respiratory syndrome coronavirus 2, Vero C1008, 72 h, read-out: IC50 inhibition activity against SARS-CoV-2), 770 nM; in “in vitro” it was 1670 nM. Besides, the “inhibition activity against SARS-CoV-2 PLpro” value against SARS-CoV-2 PLpro (screening, mean±SEM of 3 replicas) came to 56.4%.
`N=C(N/N=C/c1ccncc1)c1nonc1NCNc1nonc1C(=N)N/N=C/c1ccncc1` [Compound 13M]: the IC50 on SARS-CoV-2 Mpro (compound 13M, FIG. 10B-10C, read-out: IC50 against Mpro enzyme (converted)) is 13400 nM; at human furin protease it was 86200 nM; in data set [1] (Severe acute respiratory syndrome coronavirus 2, Vero C1008, compound 13M, FIG. 10A, read-out: antiviral activity in vitro IC50), about 8 µg/mL.
As to `N=C(N/N=C/c1ccccc1O)c1nonc1NCNc1nonc1C(=N)N/N=C/c1ccccc1O` [Compound 13], the half-maximal inhibitory concentration (IC50) on SARS-CoV-2 PLpro came out at 63 nM; on human furin protease (setting [2]) it was 290 nM; in data set [1] (Severe acute respiratory syndrome coronavirus 2, Vero C1008, Vero-E6 cells, strain NRC-03-nhCoV, 72 h, read-out: IC50 inhibition activity against SARS-CoV-2), 110 nM. The concentration for half-maximal inhibition (IC50) at 24 h in “in vitro” was found to be 410 nM.
